Where “and” joins values, the source holds several entries; their conditions need not be identical. Identical values can stand only once.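 Following 48 hours of exposure in 96-well plates, responses at five concentrations were used to interpolate endpoints linearly. GI50 marks 50% less growth.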 Calls of active or inactive are those of the source. Cut-off read from the data, not from the text of the source: active = GI50 up to about 1.1 µM and inactive = higher. Starred links: 1 amine or outer side, 2 acyl side, 3 side chain; linkers in the order of their positions; H or OH if unused. Positions of bridges follow the written chain, without caps; N, C: chain ends. Non-standard residues stand in square brackets, D forms with d. Residues, ends and D or L forms follow the SMILES beside them. Chains are numbered I, II in the order given. Actinocin(1to9) = Cc1c2oc3c(C)ccc(C(=O)[*:2])c3nc-2c(C(=O)[*:1])c(N)c1=O; NMeV = CN[CH](C(=O)O)C(C)C; Sar = CNCC(=O)O
Legend:
Assay in all cases: growth of human tumour cells (NCI), 48 h
MOLT-4 = test system: MOLT-4
RPMI-8226 = test system: RPMI-8226
UACC-62 = test system: UACC-62
SK-MEL-2 = test system: SK-MEL-2
HOP-62 = test system: HOP-62
UO-31 = test system: UO-31
HL-60 = test system: HL-60
SNB-19 = test system: SNB-19
SNB-75 = test system: SNB-75
SW-620 = test system: SW-620
M14 = test system: M14
Hs-578T = test system: Hs-578T
DU-145 = test system: DU-145
NCI-H460 = test system: NCI-H460
KM12 = test system: KM12
NCI-H226 = test system: NCI-H226
SN12C = test system: SN12C
NCI/ADR-RES = test system: NCI/ADR-RES
SF-539 = test system: SF-539
A498 = test system: A498

Compound	GI50 (MOLT-4)	GI50 (RPMI-8226)	GI50 (UACC-62)	GI50 (SK-MEL-2)	GI50 (HOP-62)	GI50 (UO-31)	GI50 (HL-60)	GI50 (SNB-19)	GI50 (SNB-75)	GI50 (SW-620)	GI50 (M14)	GI50 (Hs-578T)	GI50 (DU-145)	GI50 (NCI-H460)	GI50 (KM12)	GI50 (NCI-H226)	GI50 (SN12C)	GI50 (NCI/ADR-RES)	GI50 (SF-539)	GI50 (A498)
Cc1cc(-c2cc(C)c(O)c(C(C)(C)C)c2)cc(C(C)(C)C)c1O	5.79 µM (inactive) and 5.86 µM (inactive)	18.9 µM (inactive) and 12.9 µM (inactive)	13.3 µM (inactive) and 13.6 µM (inactive)	6.31 µM (inactive) and 12.2 µM (inactive)	17.8 µM (inactive) and 17.3 µM (inactive)	11 µM (inactive) and 18.1 µM (inactive)	12 µM (inactive)	14.6 µM (inactive) and 13.7 µM (inactive)	14 µM (inactive) and 12.6 µM (inactive)	16.4 µM (inactive) and 11 µM (inactive)	10.6 µM (inactive) and 12.8 µM (inactive)	12.8 µM (inactive) and 15.3 µM (inactive)	15.2 µM (inactive) and 11.8 µM (inactive)	6.68 µM (inactive) and 5.46 µM (inactive)	6.07 µM (inactive) and 9.06 µM (inactive)	10.7 µM (inactive) and 19.8 µM (inactive)	13.4 µM (inactive) and 12.3 µM (inactive)	11 µM (inactive) and 14 µM (inactive)	15 µM (inactive) and 18.5 µM (inactive)	9.4 µM (inactive) and 17.1 µM (inactive)
COc1c(C(CC(C)C)OC(C)=O)ccc2c1C(=O)OCc1cc(C)cc(O)c1O2 (stereo not given)	12.8 µM (inactive)	> 100 µM (inactive)	12.7 µM (inactive)	19.1 µM (inactive)	18.7 µM (inactive)	6.95 µM (inactive)	> 100 µM (inactive)	14.8 µM (inactive)	19.2 µM (inactive)	17.5 µM (inactive)	16.7 µM (inactive)	22.1 µM (inactive)	12.5 µM (inactive)	12.6 µM (inactive)	19.3 µM (inactive)	14.9 µM (inactive)	14.2 µM (inactive)	12.5 µM (inactive)	18.2 µM (inactive)	20.3 µM (inactive)
COc1cc(C2C3=C(COC3=O)Oc3cc4c(cc32)OCO4)cc(OC)c1OC (stereo not given)	0.024 µM (active)	0.0401 µM (active)	0.0166 µM (active)	0.039 µM (active)	< 0.0255 µM (active)	0.139 µM (active)	0.0154 µM (active)	0.034 µM (active)	0.00993 µM (active)	0.0173 µM (active)	0.0326 µM (active)	0.0521 µM (active)	0.0256 µM (active)	0.0216 µM (active)	0.0112 µM (active)	0.123 µM (active)	0.0515 µM (active)	0.0185 µM (active)	0.0218 µM (active)	0.00488 µM (active)
CCCCCCCCCC1CC(=O)NCC(=O)NC(C(C)C)C(=O)NC(CC(C)C)C(=O)NC(C)C(=O)NC(C(C)C)C(=O)O1 (stereo not given)	13.3 µM (inactive)	17.1 µM (inactive)	25.1 µM (inactive)	25.2 µM (inactive)	22.5 µM (inactive)	> 100 µM (inactive)	56.1 µM (inactive)	18.7 µM (inactive)	12.3 µM (inactive)	3.84 µM (inactive)	20.2 µM (inactive)	18 µM (inactive)	21.9 µM (inactive)	5.38 µM (inactive)	6.79 µM (inactive)	36.6 µM (inactive)	19.1 µM (inactive)	> 100 µM (inactive)	19.1 µM (inactive)	1.36 µM (inactive)
S=C1SCN(Cc2ccco2)CN1c1ccc(Br)cc1	17.4 µM (inactive)	15.4 µM (inactive)	2.94 µM (inactive)	13.6 µM (inactive)	23.8 µM (inactive)	22.9 µM (inactive)	13.2 µM (inactive)	21.8 µM (inactive)	37.8 µM (inactive)	19.5 µM (inactive)	13.8 µM (inactive)	24.8 µM (inactive)	26.2 µM (inactive)	7.33 µM (inactive)	11.1 µM (inactive)	25.2 µM (inactive)	23.4 µM (inactive)	18.3 µM (inactive)	14.5 µM (inactive)	20 µM (inactive)
COc1ccc(/C=C2\CCC(CN(C)C)C2=O)cc1 (stereo not given)	1.83 µM (inactive)	0.832 µM (active)	8.91 µM (inactive)	7.87 µM (inactive)	12.2 µM (inactive)	8.59 µM (inactive)	1.02 µM (active)	10.3 µM (inactive)	12.4 µM (inactive)	1.96 µM (inactive)	2.54 µM (inactive)	3.82 µM (inactive)	2.94 µM (inactive)	16.6 µM (inactive)	8.26 µM (inactive)	16.3 µM (inactive)	5.83 µM (inactive)	2.36 µM (inactive)	7.83 µM (inactive)	15 µM (inactive)
CCOC(=O)NNC1(SC)NC(=O)c2c(cc(Cl)oc2=O)O1 (stereo not given)	2.67 µM (inactive)	2.84 µM (inactive)	5.97 µM (inactive)	7.73 µM (inactive)	11.3 µM (inactive)	1.72 µM (inactive)	1.9 µM (inactive)	11.5 µM (inactive)	9.84 µM (inactive)	3.31 µM (inactive)	3.37 µM (inactive)	5.64 µM (inactive)	4.17 µM (inactive)	8 µM (inactive)	10.4 µM (inactive)	20.9 µM (inactive)	3.21 µM (inactive)	6.84 µM (inactive)	1.79 µM (inactive)	14.2 µM (inactive)
COc1ccc(C(O)CC(O)(C(F)(F)F)C(F)(F)F)cc1 (stereo not given)	23.9 µM (inactive)	14.4 µM (inactive)	22.8 µM (inactive)	17.6 µM (inactive)	26.4 µM (inactive)	39.8 µM (inactive)	18.7 µM (inactive)	24.9 µM (inactive)	1.7 µM (inactive)	33 µM (inactive)	32.8 µM (inactive)	16.3 µM (inactive)	47 µM (inactive)	27.4 µM (inactive)	51.3 µM (inactive)	23.2 µM (inactive)	24.8 µM (inactive)	19.4 µM (inactive)	21.7 µM (inactive)	21.9 µM (inactive)
COC1=C(OC)C(=O)c2cc(C)c(=O)c(C)cc2C1=O	2.27 µM (inactive)	5.69 µM (inactive)	13.4 µM (inactive)	17.3 µM (inactive)	21.3 µM (inactive)	13.8 µM (inactive)	2.82 µM (inactive)	18.4 µM (inactive)	18.4 µM (inactive)	8.61 µM (inactive)	16.9 µM (inactive)	23.1 µM (inactive)	16.9 µM (inactive)	24.7 µM (inactive)	17.6 µM (inactive)	18.6 µM (inactive)	2.81 µM (inactive)	17 µM (inactive)	18.2 µM (inactive)	24.2 µM (inactive)
O=C1CC(n2cccc2)c2c(Br)sc(Br)c21 (stereo not given)	8.93 µM (inactive)	8.24 µM (inactive)	15.9 µM (inactive)	14.5 µM (inactive)	22.1 µM (inactive)	2.56 µM (inactive)	15.1 µM (inactive)	14.9 µM (inactive)	18.7 µM (inactive)	12.4 µM (inactive)	14.9 µM (inactive)	25.1 µM (inactive)	16.6 µM (inactive)	18 µM (inactive)	7.23 µM (inactive)	18.8 µM (inactive)	17.3 µM (inactive)	26.1 µM (inactive)	17.6 µM (inactive)	24.9 µM (inactive)
O=C(NCCCCNCCCNC(=O)OCc1ccccc1)OCc1ccccc1	26.9 µM (inactive)	39 µM (inactive)	17.9 µM (inactive)	21 µM (inactive)	27.8 µM (inactive)	24.2 µM (inactive)	20.3 µM (inactive)	37.8 µM (inactive)	25.5 µM (inactive)	61.7 µM (inactive)	18.3 µM (inactive)	31.8 µM (inactive)	73.6 µM (inactive)	23.6 µM (inactive)	32 µM (inactive)	32 µM (inactive)	85.3 µM (inactive)	36.4 µM (inactive)	21.3 µM (inactive)	17.4 µM (inactive)
CCC(C)C1NC(=O)C(NC(=O)c2c3nc4c(C(=O)NC5C(=O)NC(C(C)CC)C(=O)N6CCCC6C(=O)N(C)CC(=O)N(C)C(C(C)C)C(=O)OC5C)ccc(C)c4oc-3c(C)c(=O)c2N)C(C)OC(=O)C(C(C)C)N(C)C(=O)CN(C)C(=O)C2CCCN2C1=O (stereo not given) (I: TIP[Sar][NMeV] / II: TIP[Sar][NMeV]; ester I:1-I:C, II:1-II:C; linker I:N-II:N via Actinocin(1to9); configuration not given here)	< 0.0001 µM (active)	0.000143 µM (active)	0.000169 µM (active)	0.00101 µM (active)	< 0.0001 µM (active)	0.0204 µM (active)	< 0.0001 µM (active)	< 0.0001 µM (active)	0.00319 µM (active)	0.000236 µM (active)	< 0.00995 µM (active)	0.0065 µM (active)	0.011 µM (active)	< 0.0001 µM (active)	0.00107 µM (active)	0.000889 µM (active)	0.000282 µM (active)	0.296 µM (active)	< 0.0001 µM (active)	0.0102 µM (active)

— ChEMBL document CHEMBL1201862, “PubChem BioAssay data set” (2004)
